{"source": "patent US10626058B2", "about": "“Urea ammonium sulphate-based composition and method for the manufacture thereof” (YARA INTERNATIONAL ASA, priority 2015, dated 2020)", "format": "physicochemical", "details": "for effect of added alkaline compound on stability of nBTPT on UAS: UAS+500 ppm nBTPT powder+2350 ppm rapeseed oil, 12 days open to air storage at 30° C. in an oven; for half-life time for nBTPT: stored in bags at room temperature (20-25° C.)", "procedure": "For lab scale experiments, 1.2 kg of solid fertilizer material was added to a lab scale drum. In a next step, the nBTPT material was slowly added. A residence time of 10 minutes was applied and the rotating speed of the drum was consequently the same in each experiment. In case a moisture repellent coating was added, a nebulizer was used and depending on the order of addition, the moisture repellent coating was added before or after addition of the nBTPT material. Before use, the moisture repellent coating was preheated to 80° C. Larger scale experiments with amounts up to 40 kg of fertilizer material were performed in a concrete mixer.\nThe samples were stored under several conditions, dependent on the type of samples: • 20° C. closed plastic container with head space (Climate chamber, 80% relative humidity) • Bagged at room temperature (20-25° C.) or in nissenhut • Open to air in nissenhut • Cylinder test in nissenhut • Open pile in nissenhut\nFor some samples, an accelerated stability test was done storing these samples at elevated temperatures: • Oven of 30° C. closed plastic container • Oven of 30° C. open to air • 30° C./60% RH open to air • 70° C. closed plastic container\nTypically, a day/night cycle is generated in the nissenhut, with temperature fluctuations between 0 to 42° C. and fluctuations of relative humidity between 20 and 90%, which can be compared with real life storage in silos.\nHPLC analysis of nBTPT is done as described in the procedure CEN 15688-2007.", "note": "Where two headings read alike, the source gives them in different places."}
{"smiles": "O=C([O-])[O-].[Ca+2]", "note": "[calcium carbonate]", "values": [{"measurement": "effect of added alkaline compound on stability of nBTPT on UAS", "value": "stabilizing effect"}]}
{"smiles": "[O]=[Ca]", "note": "[calcium oxide]", "values": [{"measurement": "effect of added calcium oxide on stability of nBTPT on UAS", "setting": "500-2350 ppm calcium oxide, UAS+500 ppm nBTPT powder, 8 days open to air at nissenhut (16-42° C./27-77% relative humidity)", "value": "large stabilizing effect"}, {"measurement": "effect of added alkaline compound on stability of nBTPT on UAS", "value": "stabilizing effect"}]}
{"smiles": "CCCCNP(N)(N)=S", "note": "[nBTPT, N-(n-butyl) thiophosphoric triamide]", "values": [{"measurement": "effect of moisture repellent coating and of solid particulate form on stability of nBTPT on UAS", "setting": "7 days in closed plastic containers with head space at 20° C./80% relative humidity, FIG. 10", "value": "beneficial effect"}, {"measurement": "effect of calcium oxide addition and of solid particulate form on stability of nBTPT on UAS", "setting": "16 days in bags at nissenhut (16-42° C./27-77% relative humidity), FIG. 8", "value": "beneficial effect"}, {"measurement": "effect of calcium oxide addition and of bagged storage on stability of nBTPT on UAS", "setting": "16 days in nissenhut (16-42° C./27-77% relative humidity), FIG. 9", "value": "beneficial effect"}, {"measurement": "effect of calcium oxide, solid particulate form, moisture repellent coating and bagged storage on stability of nBTPT on UAS", "setting": "16 days in nissenhut (16-42° C./27-77% relative humidity), FIG. 12", "value": "beneficial effect"}, {"measurement": "effect of solid particulate form and of bagged storage on stability of nBTPT on UAS", "setting": "28 days at room temperature (20-25° C.), FIG. 11", "value": "beneficial effect"}, {"measurement": "effect of bagged versus open to air storage on stability of nBTPT on UAS", "setting": "solid nBTPT (500 ppm), 28 days at room temperature (20-25° C.)", "value": "beneficial effect"}, {"measurement": "half-life time for nBTPT", "setting": "solid particulate form on UAS plus alkaline or alkaline-forming compound and moisture repellent coating", "value": "6-12 months"}, {"measurement": "half-life time for nBTPT", "setting": "urease inhibitor in liquid form on UAS", "value": "only a few days"}, {"measurement": "half-life time for nBTPT", "setting": "urease inhibitor in solid particulate form on UAS", "value": "up to 4 months"}]}
{"smiles": "[O]=[Zn]", "note": "[zinc oxide]", "values": [{"measurement": "effect of added alkaline compound on stability of nBTPT on UAS", "value": "best effect"}]}
